IC50 data for 15 compounds are collected here from patent publication US20250177408A1, “INHIBITOR OF INTERACTION BETWEEN YAP/TAZ AND TEAD, PREPARATION THEREOF, PHARMACEUTICAL COMPOSITION THEREOF AND USE THEREOF” (ETERN BIOPHARMA (SHANGHAI) CO., LTD., priority 2022, published 2025).

For assay [1], the target named is YAP-TEAD protein interaction (His-TEAD1 (209-426) protein, Bio-YAP peptide (60-100)) (Homo sapiens, UniProt P28347). Nature of the assay: YAP-TEAD protein interaction HTRF experiment. In kind it is binding. The note with it: His-TEAD1 (209-426) 10 nM, Bio-YAP peptide 50 nM, read-out: Activity of each compound in blocking YAP-TEAD protein interaction (grades of IC50 values). The method, then: In this example, the YAP-TEAD protein interaction HTRF experiment was used to detect the activity of each compound in blocking the YAP-TEAD protein interaction.
The experiment was carried out according to the following operation steps:
Step 1: His-TEAD1 (209-426) protein was added to a 384-well detection white plate to a final concentration of 10 nM, and buffer was used as the background signal well. The compounds to be tested were subjected to 3-fold dilution and a total of 10 concentration gradients were set up, and each diluted solution was mixed well. A certain volume of the compound to be tested was added to each well separately, 2 replicates were set for each concentration, and the final concentration of DMSO was controlled at 1%. Incubation was carried out at room temperature for 20 minutes. The amino acid sequence of TAED1 (209-426) used in this step is shown in SEQ ID NO: 1:
After mixing evenly, the mixture was incubated at room temperature for 10 minutes.
Step 3: Anti-His-Eu cryptate gold and streptavidin-XL665 were diluted according to the instructions and mixed in equal proportions. A certain volume of the detection reagent was added to the well, and the mixture was incubated at room temperature for 1 hour.
Step 4: The signal was detected using an Envision (Perkin Elmer) microplate reader at an excitation wavelength of 320 nm and emission wavelengths of 665 nm and 620 nm.
Step 5: The signal was calculated based on the ratio of Em665/Em620*10000.
(§1) The inhibition percentage (%) was calculated using the following formula: […]
The half-maximal inhibitory concentration (IC50) values were calculated using GraphPad Prism software.

In assay [2] the test system is MSTO-211H cells. Nature of the assay: Cell proliferation inhibition experiment (CellTiter-Glo). In kind it is cell-based. Particulars: Homo sapiens, 96 hours, read-out: Inhibitory activity of each compound on the proliferation of MSTO-211H cells (grades of IC50 values). As to the method:
In this example, the intracellular ATP was quantitatively determined by the CellTiter-Glo luminescence cell viability detection kit to detect the number of living cells in the culture.
Step 1: MSTO-211H (ATCC, CRL-2081TM) or NCI-H2052 (ATCC, CRL-5915TM) cells were inoculated in a 96-well plate at a density of 1500 cells per well with a volume of 100 μL per well, and the cells were incubated overnight in a 37° C., 5% carbon dioxide incubator. The culture medium used was RPMI1640 medium (GIBCO-A10491-01)+10% FBS (GIBCO-10099141C)+1% penicillin/streptomycin (Pen/Strep) (GIBCO-15070-063).
Step 2: The cells were treated with the compounds to be tested. The compounds to be tested were 3-fold diluted, and a total of 9 concentration gradients were set up; a certain volume of DMSO or the compounds to be tested was added to each well, respectively, and 2 replicates were set up for each concentration, and the final concentration of DMSO was controlled to be no higher than 0.5%. The cells were incubated for 96 hours in a 37° C., 5% carbon dioxide incubator.
Step 3: Cell viability was detected in the control group and treatment group using CellTiter-Glo Luminescent Cell Viability Assay kit (Promega, G7570). 50 μL of CellTiter-Glo was added to each well, mixed well, and incubated at room temperature for 10 minutes. The signal was read using En Vision® Multilabel Plate Reader (Perkin Elmer).
as §1
Using Graphpad Prism software, the IC50 values of the compounds inhibiting the CTG signal of cell proliferation activity was calculated.

Structures can show the parent of a compound that is named as a salt. Where only a bound is given, the exact number is not on record here.

Sequence of YAP-TEAD protein interaction (His-TEAD1 (209-426) protein, Bio-YAP peptide (60-100)) (P28347 209-426): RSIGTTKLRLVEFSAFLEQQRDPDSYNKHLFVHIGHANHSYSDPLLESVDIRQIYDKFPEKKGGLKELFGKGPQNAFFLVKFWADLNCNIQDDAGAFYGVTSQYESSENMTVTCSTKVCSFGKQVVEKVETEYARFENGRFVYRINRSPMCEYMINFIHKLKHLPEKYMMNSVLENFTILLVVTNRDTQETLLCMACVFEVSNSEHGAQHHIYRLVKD

For the compound `CO[C@H]1CC[C@H](NC[C@@]2(c3ccccc3)Cc3c(cc(F)c(Cl)c3-c3c(C(N)=O)cc4c(c3F)OCc3nn(C)cc3-4)O2)CC1` (atropisomer, axis not shown) [Compound 78, (S)-7-((S)-5-Chloro-6-fluoro-2-((((1R,4S)-4-methoxycyclohexyl)amino)methyl)-2-phenyl-2,3-dihydrobenzofuran-4-yl)-6-fluoro-2-methyl-2,4-dihydrochromeno[3,4-c]pyrazole-8-carboxamide], the IC50 in assay [1] was less than 50 nM; in assay [2] it was less than 200 nM.
On to `Cn1cc2c(n1)COc1c-2cc(C(N)=O)c(-c2c(Cl)c(F)cc3c2C[C@@](CN[C@H]2CC[C@H](C(N)=O)CC2)(c2ccccc2)O3)c1F` (atropisomer, axis not shown) [Compound 79], for which the values for the IC50 in assay [1] and in assay [2] were less than 50 nM and 200 to 500 nM, respectively.
`Cn1cc2c(n1)COc1c-2cc(C(N)=O)c(-c2c(Cl)c(F)cc3c2C[C@@](CN[C@H]2CC[C@H](O)CC2)(c2ccccc2)O3)c1F` (atropisomer, axis not shown) [Compound 81]: the IC50 in assay [1] is less than 50 nM; in assay [2], less than 200 nM.
On to `CO[C@H]1C[C@H](CNC[C@@]2(c3ccccc3)Cc3c(cc(F)c(Cl)c3-c3c(C(N)=O)cc4c(c3F)OCc3nn(C)cc3-4)O2)C1` (atropisomer, axis not shown) [Compound 84, (S)-7-((S)-5-Chloro-6-fluoro-2-(((((1r,3S)-3-methoxycyclobutyl)methyl)amino)methyl)-2-phenyl-2,3-dihydrobenzofuran-4-yl)-6-fluoro-2-methyl-2,4-dihydrochromeno[3,4-c]pyrazole-8-carboxamide formate], for which the values for the IC50 in assay [1] and in assay [2] were less than 50 nM and 200 to 500 nM, respectively.
Taken in the same sequence, the figures for `NC(=O)c1cc2c(c(F)c1-c1c(Cl)c(F)cc3c1C[C@](c1ccccc1)([C@@H]1CCCN1)O3)Oc1nc(CO)cnc1O2` (atropisomer, axis not shown) [Compound 101, (S)-8-((S)-5-Chloro-6-fluoro-2-phenyl-2-((S)-pyrrolidin-2-yl)-2,3-dihydrobenzofuran-4-yl)-9-fluoro-2-(hydroxymethyl)benzo[5,6] [1,4]dioxo [2,3-b]pyrazine-7-carboxamide] were less than 50 nM and less than 200 nM.
Taken in the same sequence, the figures for `NC(=O)c1cc2c(c(F)c1-c1c(Cl)c(F)cc3c1C[C@](c1ccccc1)([C@@H]1CCCN1)O3)Oc1ncc(CO)nc1O2` (atropisomer, axis not shown) [Compound 102, (S)-8-((S)-5-Chloro-6-fluoro-2-phenyl-2-((S)-pyrrolidin-2-yl)-2,3-dihydrobenzofuran-4-yl)-9-fluoro-3-(hydroxymethyl)benzo[5,6] [1,4]dioxo [2,3-b]pyrazine-7-carboxamide] were less than 50 nM and less than 200 nM.
Taken in the same sequence, the figures for `Cn1ncc2c(c1=O)Oc1c(cc(C(N)=O)c(-c3c(Cl)c(F)cc4c3C[C@](c3ccccc3)([C@@H]3CCCN3)O4)c1F)O2` (atropisomer, axis not shown) [Compound 105, (S)-8-((S)-5-Chloro-6-fluoro-2-phenyl-2-((S)-pyrrolidin-2-yl)-2,3-dihydrobenzofuran-4-yl)-9-fluoro-2-methyl-1-oxo-1,2-dihydrobenzo[5,6][1,4]dioxo[2,3-d]pyridazine-7-carboxamide] were less than 50 nM and less than 200 nM.
Consider `NC(=O)c1cc2c(c(F)c1-c1c(Cl)c(F)cc3c1C[C@](c1ccccc1)([C@@H]1CCCN1)O3)Oc1c(cn[nH]c1=O)O2` (atropisomer, axis not shown) [Compound 107, (S)-8-((S)-5-Chloro-6-fluoro-2-phenyl-2-((S)-pyrrolidin-2-yl)-2,3-dihydrobenzofuran-4-yl)-9-fluoro-1-oxo-1,2-dihydrobenzo[5,6][1,4]dioxo [2,3-d]pyridazine-7-carboxamide], for which the IC50 in assay [1] was less than 50 nM; in assay [2] it was less than 200 nM.
Taken in the same sequence, the figures for `NC(=O)c1cc2c(c(F)c1-c1c(Cl)c(F)cc3c1C[C@](c1ccccc1)([C@@H]1CCCN1)O3)Oc1cn[nH]c(=O)c1O2` (atropisomer, axis not shown) [Compound 108, (S)-8-((S)-5-Chloro-6-fluoro-2-phenyl-2-((S)-pyrrolidin-2-yl)-2,3-dihydrobenzofuran-4-yl)-9-fluoro-4-oxo-3,4-dihydrobenzo[5,6][1,4]dioxo [2,3-d]pyridazine-7-carboxamide] were less than 50 nM and 500 to 5000 nM.
Taken in the same sequence, the figures for `CCn1ncc2c(c1=O)Oc1c(cc(C(N)=O)c(-c3c(Cl)c(F)cc4c3C[C@](c3ccccc3)([C@@H]3CCCN3)O4)c1F)O2` (atropisomer, axis not shown) [Compound 109, (S)-8-((S)-5-Chloro-6-fluoro-2-phenyl-2-((S)-pyrrolidin-2-yl)-2,3-dihydrobenzofuran-4-yl)-2-ethyl-9-fluoro-1-oxo-1,2-dihydrobenzo[5,6][1,4]dioxo [2,3-d]pyridazine-7-carboxamide] were less than 50 nM and less than 200 nM.
Taken in the same sequence, the figures for `CCn1ncc2c(c1=O)Oc1cc(C(N)=O)c(-c3c(Cl)c(F)cc4c3C[C@](c3ccccc3)([C@@H]3CCCN3)O4)c(F)c1O2` (atropisomer, axis not shown) [Compound 110, (S)-8-((S)-5-Chloro-6-fluoro-2-phenyl-2-((S)-pyrrolidin-2-yl)-2,3-dihydrobenzofuran-4-yl)-3-ethyl-9-fluoro-4-oxo-3,4-dihydrobenzo[5,6][1,4]dioxo [2,3-d]pyridazine-7-carboxamide] were less than 50 nM and 200 to 500 nM.
Consider `NC(=O)c1cc2c(c(F)c1-c1c(Cl)c(F)cc3c1C[C@](c1ccccc1)([C@@H]1CCCN1)O3)Oc1c(N)ncnc1O2` (atropisomer, axis not shown) [Compound 114, (S)-4-Amino-7-((S)-5-chloro-6-fluoro-2-phenyl-2-((S)-pyrrolidin-2-yl)-2,3-dihydrobenzofuran-4-yl)-6-fluorobenzo[5,6][1,4]dioxo [2,3-d]pyrimidine-8-carboxamide], for which the IC50 in assay [1] is less than 50 nM; in assay [2], 500 to 5000 nM.
Taken in the same sequence, the figures for `Cn1cc2c(n1)COc1c-2cc(C(N)=O)c(-c2c(Cl)c(F)cc3c2C[C@](c2ccccc2)([C@@H]2CCC(=O)N2)O3)c1F` (atropisomer, axis not shown) [Compound 115, (S)-7-((S)-5-Chloro-6-fluoro-2-((S)-5-oxopyrrolidin-2-yl)-2-phenyl-2,3-dihydrobenzofuran-4-yl)-6-fluoro-2-methyl-2,4-dihydrochromeno[3,4-c]pyrazole-8-carboxamide] were less than 50 nM and 500 to 5000 nM.
Consider `[2H]c1c([2H])c([2H])c([C@]2([C@@H]3CCCN3)Cc3c(cc(F)c(Cl)c3-c3c(C(N)=O)cc4c(c3F)OCc3nn(C)cc3-4)O2)c([2H])c1[2H]` (atropisomer, axis not shown) [Compound 116, (S)-7-((S)-5-Chloro-6-fluoro-2-(phenyl-d5)-2-((S)-pyrrolidin-2-yl)-2,3-dihydrobenzofuran-4-yl)-6-fluoro-2-methyl-2,4-dihydrochromeno[3,4-c]pyrazole-8-carboxamide], for which the IC50 was less than 50 nM in assay [1] and less than 200 nM in assay [2].
With `NC(=O)c1cc2c(c(F)c1-c1c(Cl)c(F)cc3c1C[C@](c1ccccc1)([C@@H]1CCCN1)O3)Oc1c(cnn(CCF)c1=O)O2` (atropisomer, axis not shown) [Compound 118, (S)-8-((S)-5-Chloro-6-fluoro-2-phenyl-2-((S)-pyrrolidin-2-yl)-2,3-dihydrobenzofuran-4-yl)-9-fluoro-2-(2-fluoroethyl)-1-oxo-1,2-dihydrobenzo[5,6][1,4]dioxo[2,3-d]pyridazine-7-carboxamide], the IC50 was less than 50 nM in assay [1] and less than 200 nM in assay [2].
